# Data: patent US20060205772A1, “Amide derivatives and their use as inhibitors of 11-beta-hydroxysteroid dehydrogenase type I” (priority 2003, published 2006)
# How the values were obtained:
# cellular 11β-HSD1 = target: T1, cellular 11β-HSD1 (Rattus norvegicus, UniProt P16232); test: inhibition of cellular 11β-HSD1 activity in primary rat hepatocytes; format: cell-based; settings: 2 h incubation
# T1 construct: Enzyme activity is measured in the medium of primary cultures of rat hepatocytes 48 h after plating the cells; endogenous in cells; host or cells: primary hepatocytes of male Sprague-Dawley rats
# Description: The inhibition of cellular 11β-HSD1 activity in primary rat hepatocytes is determined as follows:
# Male Sprague-Dawley rats weighing 180-200 g are anesthetized with sodium pentobarbital (65 mg/kg). The liver is perfused in situ with calcium-free Earl's Balanced Salt Solution (EBSS) followed by EBSS containing 100-150 U/mL of collagenase, 1.8 mM CaCl2 and 10 mM HEPES, pH 7.4. The perfused liver is removed and aseptically placed in warm William's Medium E containing 10% BCS. After decapsulation, the organ is transferred to fresh medium and gently shaken to facilitate tissue dissociation and cell release. Hepatocytes are separated from nonparenchymal and dead cells by repeated low speed centrifugation. Cell viability is determined by trypan blue exclusion.
# Hepatocytes are plated on collagen coated dishes at a density of 1×10^5 cells/cm^2 in William's medium E containing 10% BCS, 100 U/mL penicillin, 100 μg/mL streptomycin, 0.25 μg/mL amphotericin B, 2 mM L-glutamine, 10 mM HEPES, 100 nM insulin and 1 nM dexamethasone. After 1 h the medium is changed to serum-free William's medium E supplemented as described above. Thereafter, the medium is replaced every 24 h. The cultures are maintained in a humidified atmosphere of 5% CO2 at 37° C.
# Enzyme activity is measured in the medium of primary cultures of rat hepatocytes 48 h after plating the cells. The medium is aspirated and replaced with serum-free William's medium E containing 2 nM [^3H]11-dehydrocorticosterone and a test compound and is incubated for 2 h. An aliquot of culture medium is removed at the end of the incubation and the mixture is extracted with 2 volumes of ethyl acetate, dried under vacuum and resuspended in methanol. The dissolved residues are quantitatively transferred to thin layer plates and developed in chloroform-methanol (90:10). The TLC plates are scanned on a Bioscan imaging detector and the fractional conversion of 11-dehydrocorticosterone to corticosterone is calculated. The cell layer is rinsed with cold phosphate-buffered saline and dissolved in 0.1 N NaOH/5% SDS for the determination of cellular protein (BCA, Pierce, Rockford, Ill.). Enzyme activity is expressed as pmoles of product formed per mg protein per hour.
# [1] = target: T2, human recombinant 11β-HSD1 (Homo sapiens, UniProt P28845); test: in vitro inhibition of human recombinant 11β-HSD1 (Pichia pastoris microsomes, [3H]cortisone to [3H]cortisol); format: biochemical; settings: recombinant human 11β-HSD1 microsomes, 500 nM cortisone mixture, NADPH, 90 min at 37° C.
# T2 construct: made in house; host or cells: Pichia pastoris (microsomal fraction)
# Description: The in vitro inhibition of human recombinant 11β-HSD1 is determined as follows:
# Recombinant human 11β-HSD1 is expressed in yeast Pichia pastoris. Cultures are grown at 30° C. for 3 days in the presence of methanol to induce enzyme expression. The microsomal fraction overexpressing 11β-HSD1 is prepared from the cell homogenate and used as the enzyme source for primary screening. A test compound at the desired concentration is preincubated for 10 min at RT with 3 μg of the microsomal protein in 50 mM sodium phosphate, pH 7.5, in a total volume of 80 μL. The enzyme reaction is initiated by adding 20 μL of a mixture containing 5 mM NADPH, 500 nM cortisone, and 80,000 dpm of [^3H]cortisone in the same buffer and is terminated by ethyl acetate after incubation for 90 min at 37° C. The production of [^3H]cortisol is quantitated upon separation from [^3H]cortisone by a C18 column on HPLC equipped with a radioactivity detector. Glycerrhetinic acid, a known inhibitor of 11β-HSD1, is used as a standard.
# human 11β-HSD2 = target: T3, human 11β-HSD2 (Homo sapiens, UniProt P80365); test: in vitro inhibition of human 11β-HSD2 (SW-620 cell lysates, [3H]cortisol to [3H]cortisone); format: biochemical
# T3 construct: using lysates of SW-620 cells as the enzyme source; host or cells: SW-620 human colon carcinoma cells (lysate)
# T3 sequence (P80365 1-405): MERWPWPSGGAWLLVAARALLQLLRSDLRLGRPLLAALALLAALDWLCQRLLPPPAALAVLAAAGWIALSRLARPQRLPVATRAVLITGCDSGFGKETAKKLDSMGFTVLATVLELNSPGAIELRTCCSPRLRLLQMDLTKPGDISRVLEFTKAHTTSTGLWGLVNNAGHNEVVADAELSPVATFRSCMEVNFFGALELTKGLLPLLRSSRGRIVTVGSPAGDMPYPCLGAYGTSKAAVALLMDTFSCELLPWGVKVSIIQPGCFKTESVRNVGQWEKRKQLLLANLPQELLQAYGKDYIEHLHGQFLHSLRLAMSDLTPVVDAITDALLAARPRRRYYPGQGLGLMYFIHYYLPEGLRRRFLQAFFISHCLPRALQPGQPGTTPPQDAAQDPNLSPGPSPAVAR
# Description: The in vitro inhibition of human 11β-HSD2 is determined as follows:
# The SW-620 human colon carcinoma cell line is obtained from the American Type Culture Collection (ATCC). Cells are plated at a density of 8-10×10^4 cells/cm^2 in DMEM/F12 containing 5% BCS, 100 U/mL penicillin, 100 μg/mL streptomycin and […] amphotericin B. Cultures are grown to 80-90% confluence in a humidified, atmosphere of 5% CO2 at 37° C. The medium is changed to serum-free, phenol red-free DMEM/F12 at 24 h before harvesting the cells.
# After 24 h in serum-free medium, cultured SW-620 cells are rinsed and scraped in Kreb's-Ringer buffer, pH 7.4, containing 1 mM EDTA, 2 μg/mL aprotinin, 10 μM leupeptin and 1 μM pepstatin. After sonication (30 seconds) and low speed centrifugation (2,000 rpm, 5 min) to remove cellular debris, the supernatant is collected and used to determine enzyme activity and protein concentration (BCA, Pierce, Rockford, Ill.).
# Dehydrogenase activity is quantified by measuring the conversion of [^3H]cortisol to [^3H]cortisone using lysates of SW-620 cells as the enzyme source. The assay is performed in tubes containing Kreb's-Ringer buffer pH 7.4, with 0.20 mM NAD and 200,000 dpm of [^3H]cortisol and a test compound in a total volume of 1 mL. The tubes are preincubated for 10 min at 37° C. before adding 200 μg of cell lysates to start the reaction. After incubation for 1 h at 37° C. in a shaking water bath, the mixture is extracted with 2 volumes of ethyl acetate and centrifuged for 10 min at 2,000 rpm. The organic layer is collected, dried under vacuum and resuspended in methanol. The dissolved residues are quantitatively transferred to thin layer plates and developed in chloroform-methanol (90:10). Unlabeled cortisol and cortisone were used as reference markers. The TLC plates are scanned on a Bioscan radioimaging detector (Bioscan, Washington, D.C.), and the fractional conversion of cortisol to cortisone is calculated. Enzyme activity is expressed as pmoles of product formed per mg protein per hour. Carbenoxolone and glycyrrhetinic acid are used as standards.
# [2] = system: corticosterone production in adrenalectomized (ADX) mice; test: inhibition of corticosterone production in adrenalectomized (ADX) mice; format: in vivo; settings: Mus musculus, po; ADX CD1 mice, orally 25 mg/kg each at 2 and 4 h before sacrifice; liver corticosterone
# Description: Inhibition of corticosterone production in adrenalectomized (ADX) mice is determined as follows:
# Bilateral adrenalectomy is performed in male mice of the CD1 strain (6 to 8 weeks of age, 25-30 g body weight) through a lumbar laparotomy. After 10 days the animals are fasted for 24 h. Compounds are administered orally at 25 mg/kg each at 2 and 4 h before sacrifice. A second group of animals receives carbenoxolone at the same dose, and a third group receives the vehicle (cornstarch). Homogenized liver samples are used to measure corticosterone concentration which is determined by radioimmunoassay and is expressed as pg of corticosterone per mg of liver protein.
# T2 sequence (P28845 whole entry): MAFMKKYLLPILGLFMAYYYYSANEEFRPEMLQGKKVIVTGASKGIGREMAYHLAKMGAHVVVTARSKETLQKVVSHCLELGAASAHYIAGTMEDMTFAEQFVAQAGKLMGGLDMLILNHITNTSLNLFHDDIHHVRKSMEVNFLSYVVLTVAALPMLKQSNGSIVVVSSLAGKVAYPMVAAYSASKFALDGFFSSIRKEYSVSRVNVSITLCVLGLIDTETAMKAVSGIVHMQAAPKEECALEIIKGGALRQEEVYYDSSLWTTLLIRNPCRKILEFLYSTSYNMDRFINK
# T1 sequence (P16232 whole entry): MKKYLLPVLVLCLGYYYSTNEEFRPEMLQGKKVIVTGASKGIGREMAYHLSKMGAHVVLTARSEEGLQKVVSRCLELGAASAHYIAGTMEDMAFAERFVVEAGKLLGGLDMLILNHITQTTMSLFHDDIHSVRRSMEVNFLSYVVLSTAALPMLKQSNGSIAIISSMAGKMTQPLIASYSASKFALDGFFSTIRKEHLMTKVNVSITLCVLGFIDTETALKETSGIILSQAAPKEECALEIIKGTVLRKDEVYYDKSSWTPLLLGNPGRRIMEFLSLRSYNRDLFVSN
melting point [°C],inhibition at 1 µM (cellular 11β-HSD1) [%],IC50 [1] [nM],inhibition at 10 µM (human 11β-HSD2) [%],SMILES,change in vivo at 25 mg/kg [2] [%]
199 to 203,,,,"Cc1ccc(NC(=O)c2ccc(C(=O)N3CCC[C@H]4CCCC[C@@H]43)cc2)cc1 (racemic) [Example 22, 4-[(4aS*,8aR*)-Octahydro-1(2H)-quinoline-1-carbonyl]-N-p-tolylbenzamide]",
202 to 203,,,,"O=C(Nc1ccc(C(=O)N2CCC[C@H]3CCCC[C@@H]32)cn1)c1ccc(Cl)cc1Cl (racemic) [Example 25, 2,4-Dichloro-N-{5-[(4aS*,8aR*)-octahydro-1(2H)-quinoline-1-carbonyl]-pyridin-2-yl}-benzamide]",
144 to 145,,,,"O=C(Nc1ccc(C(=O)N2CCC[C@H]3CCCC[C@@H]32)cn1)c1ccc(F)cc1 (racemic) [Example 26, 4-Fluoro-N-{5-[(4aS*,8aR*)-octahydro-1(2H)-quinoline-1-carbonyl]-pyridin-2-yl}-benzamide]",
251 to 260,,,,"COc1ccc(C(=O)Nc2ccc(C(=O)N3CCC[C@H]4CCCC[C@@H]43)c3ccccc23)cc1OC (racemic) [Example 27, 3,4-Dimethoxy-N-{4-[(4aS*,8aR*)-octahydro-1(2H)-quinoline-1-carbonyl]-naphthalen-1-yl}-benzamide]",
62 to 64,,,,"O=C(Nc1cccc(-c2ccc(C(=O)N3CCC[C@H]4CCCC[C@@H]43)o2)c1)c1ccccc1 (racemic) [Example 34, N-{3-[5-((4aS*,8aR*)-Octahydro-1(2H)-quinoline-1-carbonyl)-furan-2-yl]-phenyl}-benzamide]",
98 to 100,,,,"CC1=C(C(=O)N2CCC[C@@H]3CCCC[C@H]32)Cc2ccccc21 (racemic) [Example 36, (3-Methyl-H-inden-2-yl)-(4aS*,8aR*)-octahydro-1(2H)-quinolin-1-yl-methanone]",
220 to 221,,,,"CC1(C)CC[C@H]2[C@@H](CCCN2C(=O)c2ccc(NC(=O)c3ccc(Cl)cc3Cl)cc2)C1 (racemic) [Example 44, 2,4-Dichloro-N-[4-((4aS*,8aS*)-6,6-dimethyl-octahydro-1(2H)-quinoline-1-carbonyl)-phenyl]-benzamide]",
,49,180,10,"Cn1c(C(=O)N2CCC[C@@H]3CCCC[C@H]32)cc2ccccc21 (relative stereo) [Example 38, (1-Methyl-1H-indol-2-yl)-(4aS*,8aR*)-octahydro-1(2H)-quinolin-1-yl-methanone]",-62
183 to 184,,,,"O=C(Nc1ccc(C(=O)N2CCC[C@H]3CC(O)CC[C@@H]32)cc1)c1ccc(Cl)cc1Cl (relative stereo) [Example 41, 2,4-Dichloro-N-[4-((4aS*,6S*,8aS*)-6-hydroxy-octahydro-1(2H)-quinoline-1-carbonyl)-phenyl]-benzamide]",
158 to 160,,,,"CN(CC1CCCCC1)C(=O)c1ccc(NC(=O)c2ccc(F)cc2)cc1 [Example 1, N-Cyclohexylmethyl-4-fluorobenzoylamino-N-methylbenzamide]",
,80,1000,26,CN(CC1CCCCC1)C(=O)c1ccc(NC(=O)c2ccc(F)cc2)cc1Cl [Example 3-11],-69
,54,6.5,11,CC1=C(C(=O)N(C)CC23CC4CC(CC(C4)C2)C3)Cc2ccccc21 [Example 8-6],-57
80 to 90,,,,C[C@H]1CCCC[C@@H]1N(C)C(=O)c1ccc(NC(=O)c2ccc(Cl)cc2Cl)cc1 [Example 8-8],
85 to 100,,,,CN(C(=O)c1ccc(NC(=O)c2ccc(Cl)cc2Cl)cc1)C1CC2CCC1C2 (stereo not shown) [Example 8-9],
,90,563,2,O=C(Nc1ccc(C(=O)N2CCC[C@@H]3CCCC[C@@H]32)cc1)c1ccc(F)cc1 [Example 11-13],-73
,53,42,44,COc1cccc(NC(=O)Nc2ccc(C(=O)N3CCC[C@H]4CCCC[C@H]43)c(OC)c2)c1 [Example 13-4],-70
,71,2120,49,COc1ccccc1CNC(=O)c1ccc(C(=O)N2CCC[C@@H]3CCCC[C@@H]32)cc1 [Example 23-47],-61
,84,262,45,O=C(NCc1ccc(F)cc1)N1CCc2cc(C(=O)N3CCC[C@H]4CCCC[C@H]43)ccc21 [Example 33-21],-71
,76,7.7,34,O=C(c1ccc(-c2ccccc2[N+](=O)[O-])o1)N1CCC[C@@H]2CCCC[C@@H]21 [Example 35-15],-67
